Measurements from ChEMBL document CHEMBL1147410, “Binding of an imidazopyridoindole at imidazoline I2 receptors” (Bioorg Med Chem Lett, 2004).

Columns and labels:
[1] = Binding affinity for rat imidazoline I2 receptor from crude P2 membranes
[2] = Binding affinity for rat imidazoline I2 receptor from crude P2 membranes; 1-5
[3] = Binding affinity for rat imidazoline I2 receptor from crude P2 membranes; 350-880
[4] = molecular target: T1, Adrenergic receptor alpha-2 (Rattus norvegicus, UniProt P22086+P19328+P22909); test: Binding affinity for rat alpha-2 adrenergic receptor from crude P2 membranes
T1 sequence (P22086 whole entry): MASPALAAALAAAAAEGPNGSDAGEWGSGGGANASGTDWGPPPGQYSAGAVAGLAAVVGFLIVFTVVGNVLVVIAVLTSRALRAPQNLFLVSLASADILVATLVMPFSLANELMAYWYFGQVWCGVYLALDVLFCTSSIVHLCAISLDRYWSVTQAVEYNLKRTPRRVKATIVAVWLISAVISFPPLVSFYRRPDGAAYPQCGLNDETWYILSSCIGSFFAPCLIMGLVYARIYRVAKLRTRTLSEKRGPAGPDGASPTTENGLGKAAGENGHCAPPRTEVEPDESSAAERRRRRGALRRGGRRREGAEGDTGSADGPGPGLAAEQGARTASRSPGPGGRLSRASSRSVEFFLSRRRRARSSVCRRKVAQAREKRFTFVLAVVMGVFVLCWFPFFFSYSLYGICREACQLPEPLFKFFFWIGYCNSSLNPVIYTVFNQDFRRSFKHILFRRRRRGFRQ
T1 sequence (P19328 whole entry): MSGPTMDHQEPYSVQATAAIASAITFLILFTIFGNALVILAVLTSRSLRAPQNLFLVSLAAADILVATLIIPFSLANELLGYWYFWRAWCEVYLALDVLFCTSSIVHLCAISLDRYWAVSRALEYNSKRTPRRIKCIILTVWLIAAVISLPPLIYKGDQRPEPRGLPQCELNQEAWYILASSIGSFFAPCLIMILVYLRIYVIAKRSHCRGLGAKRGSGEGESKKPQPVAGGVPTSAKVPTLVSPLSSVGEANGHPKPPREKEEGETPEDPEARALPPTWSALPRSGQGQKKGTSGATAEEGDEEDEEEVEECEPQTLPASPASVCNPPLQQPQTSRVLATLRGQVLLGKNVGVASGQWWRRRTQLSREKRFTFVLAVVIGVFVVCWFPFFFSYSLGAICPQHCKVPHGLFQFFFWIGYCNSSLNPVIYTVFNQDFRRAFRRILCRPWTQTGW
T1 sequence (P22909 whole entry): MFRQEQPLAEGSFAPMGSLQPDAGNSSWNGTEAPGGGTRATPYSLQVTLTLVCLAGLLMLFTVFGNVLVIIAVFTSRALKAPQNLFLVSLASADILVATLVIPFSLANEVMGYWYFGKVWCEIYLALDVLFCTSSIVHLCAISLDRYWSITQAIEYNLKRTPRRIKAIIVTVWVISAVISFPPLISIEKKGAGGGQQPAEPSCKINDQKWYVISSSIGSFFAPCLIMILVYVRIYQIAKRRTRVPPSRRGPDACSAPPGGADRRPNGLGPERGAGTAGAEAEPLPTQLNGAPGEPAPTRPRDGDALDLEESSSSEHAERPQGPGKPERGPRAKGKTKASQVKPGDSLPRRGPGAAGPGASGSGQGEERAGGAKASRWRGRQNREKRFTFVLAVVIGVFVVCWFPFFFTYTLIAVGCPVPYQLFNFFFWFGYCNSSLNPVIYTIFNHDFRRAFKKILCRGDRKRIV

For `c1coc(C2=NCCN2)c1`, the Ki [1] was 2340 nM.
`c1ccc(OCC2=NCCN2)cc1` gave a Ki [2] of 5 nM.
Compound `c1ccc2c(c1)CC(C1=NCCN1)O2` (stereo not drawn) has a Ki [1] of ~50 nM.
Compound `c1ccc2oc(-c3ncc[nH]3)cc2c1` has a Ki [3] of ~880 nM.
For `c1ccc2c3c([nH]c2c1)C1=NCCN1CC3`, the Ki [1] was 7.3 nM.
In the case of `c1ccc2oc(C3=NCCN3)cc2c1`, the Ki [4] is reported as 4000 nM and the Ki [1] is reported as < 10 nM.
`COc1ccc2c3c([nH]c2c1)CNCC3` gave a Ki [4] of 8840 nM.
`c1ccc(CCC2=NCCN2)cc1` [PHENYZOLINE] gave a Ki [2] of 5 nM.
`C(=C\c1ccccc1)/C1=NCCN1` [TRACIZOLINE] gave a Ki [4] of 7413 nM and a Ki [1] of 2 nM.
Compound `c1ccc2c3c([nH]c2c1)CNCC3` [TRYPTOLINE] has a Ki [4] of 710 nM and a Ki [1] of 9.4 nM.
